The record followed here is patent EP3755703B1, “N-(PHENYL)-2-(PHENYL)PYRIMIDINE-4-CARBOXAMIDE DERIVATIVES AND RELATED COMPOUNDS AS HPK1 INHIBITORS FOR TREATING CANCER” (Incyte Corporation, priority 2018, dated 2019).

This assay concerns the target T1, HPK1 (Homo sapiens, UniProt Q92918).
T1 construct: purchased SignalChem M23-11G
T1 sequence (Q92918 1-346 limits assumed): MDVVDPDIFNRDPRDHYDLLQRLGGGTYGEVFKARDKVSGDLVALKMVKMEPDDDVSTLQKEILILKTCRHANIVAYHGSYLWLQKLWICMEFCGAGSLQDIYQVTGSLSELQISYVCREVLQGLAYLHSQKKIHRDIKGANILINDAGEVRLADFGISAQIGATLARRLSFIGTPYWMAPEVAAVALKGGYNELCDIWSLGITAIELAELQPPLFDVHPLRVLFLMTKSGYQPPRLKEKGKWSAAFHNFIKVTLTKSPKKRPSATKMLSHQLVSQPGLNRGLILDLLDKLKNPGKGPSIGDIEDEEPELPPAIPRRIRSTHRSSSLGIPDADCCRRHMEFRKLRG
The experiment in a line: HPK1 Kinase Binding Assay. The settings on record: LanthaScreen tracer 222, one hour incubation at 25 °C. As to the method: A stock solution of 1 mM test compound was prepared in DMSO. The compound plate was prepared by 3-fold and 11-point serial dilutions. 0.1 µL of the compound in DMSO was transferred from the compound plate to the white 384 well polystyrene plates. The assay buffer contained 50 mM HEPES, pH 7.5, 0.01% Tween-20, 5 mM MgCl2, 0.01% BSA, and 5 mM DTT. 5 µL of 4 nM active HPK1 (SignalChem M23-11G) prepared in the buffer was added to the plate. The enzyme concentration given was based on the given stock concentration reported by the vender. […] After one hour incubation at 25 °C, the plates were read on a PHERAstar FS plate reader (BMG Labtech). Ki values were determined.

pKi: −log10 of the molar value. Bounds are passed on as bounds.

`COc1ccc(F)c(F)c1-c1nccc(C(=O)Nc2cc(F)ccc2N2C[C@@H](N)C[C@H]2CO)n1` [Example 68, N-(2-((2S,4S)-4-Amino-2-(hydroxymethyl)pyrrolidin-1-yl)-5-fluorophenyl)-2-(2,3-difluoro-6-methoxyphenyl)pyrimidine-4-carboxamide] gave a pKi of over 7.00.
To `[2H]C([2H])([2H])Oc1ccc(C)c(F)c1-c1nccc(C(=O)Nc2cc(F)ccc2N2C[C@@H](N)C[C@H]2CO)n1` [Example 69, N-(2-((2S,4S)-4-Amino-2-(hydroxymethyl)pyrrolidin-1-yl)-5-fluorophenyl)-2-(2-fluoro-6-(methoxy-d3)-3-methylphenyl)pyrimidine-4-carboxamide] belongs over 7.00; to `COc1cc(C)cc(F)c1-c1nccc(C(=O)Nc2ccc(-c3cnccc3C#N)cc2N2C[C@@H](N)C[C@H]2CO)n1` [Example 70, N-(2-((2S,4S)-4-Amino-2-(hydroxymethyl)pyrrolidin-1-yl)-4-(4-cyanopyridin-3-yl)phenyl)-2-(2-fluoro-6-methoxy-4-methylphenyl)pyrimidine-4-carboxamide], over 7.00.
Next, `Cc1c(F)ccc(F)c1-c1nccc(C(=O)Nc2ccc(-c3cnccc3C#N)cc2N2C[C@@H](N)C[C@H]2CO)n1` [Example 71, N-(2-((2S,4S)-4-Amino-2-(hydroxymethyl)pyrrolidin-1-yl)-4-(4-cyanopyridin-3-yl)phenyl)-2-(3,6-difluoro-2-methylphenyl)pyrimidine-4-carboxamide]: over 7.00; `COc1ccc(F)c(F)c1-c1nccc(C(=O)Nc2ccc(-c3cnccc3C#N)cc2N2C[C@@H](N)C[C@H]2CO)n1` [Example 72, N-(2-((2S,4S)-4-Amino-2-(hydroxymethyl)pyrrolidin-1-yl)-4-(4-cyanopyridin-3-yl)phenyl)-2-(2,3-difluoro-6-methoxyphenyl)pyrimidine-4-carboxamide]: over 7.00; `COc1c(F)ccc(F)c1-c1nccc(C(=O)Nc2ccc(-c3cnccc3C#N)cc2N2C[C@@H](N)C[C@H]2CO)n1` [Example 73, N-(2-((2S,4S)-4-Amino-2-(hydroxymethyl)pyrrolidin-1-yl)-4-(4-cyanopyridin-3-yl)phenyl)-2-(3,6-difluoro-2-methoxyphenyl)pyrimidine-4-carboxamide]: over 7.00.
In turn, `[2H]C([2H])([2H])Oc1ccc(C#N)c(F)c1-c1nccc(C(=O)Nc2ccc(-c3cnccc3C#N)cc2N2C[C@@H](N)C[C@H]2CO)n1` [Example 74, N-(2-((2S,4S)-4-Amino-2-(hydroxymethyl)pyrrolidin-1-yl)-4-(4-cyanopyridin-3-yl)phenyl)-2-(3-cyano-2-fluoro-6-(methoxy-d3)phenyl)pyrimidine-4-carboxamide] showed a pKi of over 7.00.
Next, `[2H]C([2H])([2H])Oc1c(F)ccc(F)c1-c1nccc(C(=O)Nc2ccc(-c3cnccc3C#N)cc2N2C[C@@H](N)C[C@H]2CO)n1` [Example 75, N-(2-((2S,4S)-4-Amino-2-(hydroxymethyl)pyrrolidin-1-yl)-4-(4-cyanopyridin-3-yl)phenyl)-2-(3,6-difluoro-2-(methoxy-d3)phenyl)pyrimidine-4-carboxamide]: over 7.00; `[2H]C([2H])([2H])Oc1ccc(F)c(F)c1-c1nccc(C(=O)Nc2ccc(-c3cnccc3C#N)cc2N2C[C@@H](N)C[C@H]2CO)n1` [Example 76, N-(2-((2S,4S)-4-Amino-2-(hydroxymethyl)pyrrolidin-1-yl)-4-(4-cyanopyridin-3-yl)phenyl)-2-(2,3-difluoro-6-(methoxy-d3)phenyl)pyrimidine-4-carboxamide]: over 7.00; `COc1cccc(F)c1-c1nccc(C(=O)Nc2ccccc2C2CCNCC2)n1` [Example 78, 2-(2-Fluoro-6-methoxyphenyl)-N-(2-(piperidin-4-yl)phenyl)pyrimidine-4-carboxamide]: 6.30 to 7.00.
To `COc1cccc(F)c1-c1nccc(C(=O)Nc2ccccc2C2CCCC(N)C2)n1` (centres unmarked) [Example 80, N-(2-(3-Aminocyclohexyl)phenyl)-2-(2-fluoro-6-methoxyphenyl)pyrimidine-4-carboxamide] belongs over 7.00.
To `COc1cccc(F)c1-c1nccc(C(=O)Nc2ccccc2C2CCC(N)C2)n1` (centres unmarked) [Example 81, N-(2-(3-aminocyclopentyl)phenyl)-2-(2-fluoro-6-methoxyphenyl)pyrimidine-4-carboxamide] belongs over 7.00.
Regarding `COc1cccc(F)c1-c1nccc(C(=O)Nc2ccc(-c3c(C)nn(C)c3C)cc2[C@H]2CC[C@@H](N)CC2)n1` [Example 84, N-(2-((cis)-4-Aminocyclohexyl)-4-(1,3,5-trimethyl-1H-pyrazol-4-yl)phenyl)-2-(2-fluoro-6-methoxyphenyl)pyrimidine-4-carboxamide], the pKi is over 7.00.
Next, `COc1cccc(F)c1-c1nccc(C(=O)Nc2ccc(S(C)(=O)=O)cc2N2C[C@@H](N)C[C@H]2CO)n1` [Example 85, N-(2-((2S,4S)-4-Amino-2-(hydroxymethyl)pyrrolidin-1-yl)-4-(methylsulfonyl)phenyl)-2-(2-fluoro-6-methoxyphenyl)pyrimidine-4-carboxamide]: over 7.00; `COc1cccc(F)c1-c1nccc(C(=O)Nc2ccccc2N2C[C@@H](N)C[C@H]2CO)n1` [Example 86, N-(2-((2S,4S)-4-Amino-2-(hydroxymethyl)pyrrolidin-1-yl)phenyl)-2-(2-fluoro-6-methoxyphenyl)pyrimidine-4-carboxamide]: over 7.00; `COc1cccc(F)c1-c1nccc(C(=O)Nc2cc(C)ccc2N2C[C@@H](N)C[C@H]2CO)n1` [Example 87, N-(2-((2S,4S)-4-Amino-2-(hydroxymethyl)pyrrolidin-1-yl)-5-methylphenyl)-2-(2-fluoro-6-methoxyphenyl)pyrimidine-4-carboxamide]: over 7.00.
Next, `COc1cccc(F)c1-c1nccc(C(=O)Nc2cc(F)ccc2N2C[C@@H](N(C)C)C[C@H]2CO)n1` [Example 88, N-(2-((2S,4S)-4-(Dimethylamino)-2-(hydroxymethyl)pyrrolidin-1-yl)-5-fluorophenyl)-2-(2-fluoro-6-methoxyphenyl)pyrimidine-4-carboxamide]: over 7.00.
To `COc1cccc(F)c1-c1nccc(C(=O)Nc2cc(F)ccc2N2C[C@@H](NC(C)C)C[C@H]2CO)n1` [Example 89, N-(5-Fluoro-2-((2S,4S)-2-(hydroxymethyl)-4-(isopropylamino)pyrrolidin-1-yl)phenyl)-2-(2-fluoro-6-methoxyphenyl)pyrimidine-4-carboxamide] belongs over 7.00.
On to `COc1cccc(F)c1-c1nccc(C(=O)Nc2ccc(C3CCOCC3)cc2N2C[C@@H](N)C[C@H]2CO)n1` [Example 90, N-(2-((2S,4S)-4-Amino-2-(hydroxymethyl)pyrrolidin-1-yl)-4-(tetrahydro-2H-pyran-4-yl)phenyl)-2-(2-fluoro-6-methoxyphenyl)pyrimidine-4-carboxamide], for which the pKi was over 7.00.
Compound `COc1cccc(F)c1-c1nccc(C(=O)Nc2ccc(Cl)cc2N2C[C@@H](N)C[C@H]2CO)n1` [Example 91, N-(2-((2S,4S)-4-Amino-2-(hydroxymethyl)pyrrolidin-1-yl)-4-chlorophenyl)-2-(2-fluoro-6-methoxyphenyl)pyrimidine-4-carboxamide] gave a pKi of over 7.00.
